Assays:
human orexin-2 receptor = human orexin-2 receptor (Homo sapiens (Human), UniProt O43614); assay: In vitro assay: intracellular calcium measurements (FLIPR), antagonistic activity; assay type: cell-based; conditions: CHO cells, 3 nM orexin-A, compound incubation 120 min; marked values are geometric means of n = 2-6; read-out: IC50 OX2
human orexin-1 receptor = human orexin-1 receptor (Homo sapiens (Human), UniProt O43613); assay: as above; assay type: cell-based; conditions: CHO cells, 3 nM orexin-A, compound incubation 120 min; marked values are geometric means of n = 2-6; read-out: IC50 OX1
Chain of human orexin-1 receptor (O43613 whole entry): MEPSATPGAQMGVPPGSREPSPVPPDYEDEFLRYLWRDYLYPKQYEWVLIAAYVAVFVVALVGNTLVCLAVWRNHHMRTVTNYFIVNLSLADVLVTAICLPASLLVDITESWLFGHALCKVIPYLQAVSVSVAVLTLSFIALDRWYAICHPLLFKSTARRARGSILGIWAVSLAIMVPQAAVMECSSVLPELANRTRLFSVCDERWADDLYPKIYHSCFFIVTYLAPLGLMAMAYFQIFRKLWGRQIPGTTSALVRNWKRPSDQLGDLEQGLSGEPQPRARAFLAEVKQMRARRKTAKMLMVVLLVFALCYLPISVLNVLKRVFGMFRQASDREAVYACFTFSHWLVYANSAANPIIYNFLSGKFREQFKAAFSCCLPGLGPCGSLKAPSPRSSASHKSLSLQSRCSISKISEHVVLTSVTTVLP

Chain of human orexin-2 receptor (O43614 whole entry): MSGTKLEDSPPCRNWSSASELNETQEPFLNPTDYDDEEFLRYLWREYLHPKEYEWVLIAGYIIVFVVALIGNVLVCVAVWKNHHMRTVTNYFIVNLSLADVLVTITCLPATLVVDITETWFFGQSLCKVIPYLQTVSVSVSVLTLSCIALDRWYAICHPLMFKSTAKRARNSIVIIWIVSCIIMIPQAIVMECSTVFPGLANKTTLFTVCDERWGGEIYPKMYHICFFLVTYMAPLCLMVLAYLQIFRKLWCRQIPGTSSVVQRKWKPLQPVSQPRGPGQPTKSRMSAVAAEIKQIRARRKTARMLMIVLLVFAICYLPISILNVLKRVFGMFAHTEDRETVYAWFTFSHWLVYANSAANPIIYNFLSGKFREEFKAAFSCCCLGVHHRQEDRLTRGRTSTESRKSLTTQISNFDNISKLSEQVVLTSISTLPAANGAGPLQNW

| SMILES | IC50 (human orexin-2 receptor) | IC50 (human orexin-1 receptor) |
| --- | --- | --- |
| COc1cccc(OC)c1C1CCCC(=O)N1Cc1cccc(-c2csc(C)n2)c1 (centres unmarked) [Example 16, 6-(2,6-dimethoxyphenyl)-1-(3-(2-methylthiazol-4-yl)benzyl)piperidin-2-one] | 0.002 µM | 0.003 µM |
| COc1cccc(OC)c1C1CCCC(=O)N1Cc1cccc(N2CCOCC2)c1 (centres unmarked) [Example 17, 6-(2,6-dimethoxyphenyl)-1-(3-morpholinobenzyl)piperidin-2-one] | 0.661 µM | 0.21 µM |
| COc1cccc(OC)c1C1CCCC(=O)N1Cc1ccc(-c2ccccc2)s1 (centres unmarked) [Example 18, 6-(2,6-dimethoxyphenyl)-1-((5-phenylthiophen-2-yl)methyl)piperidin-2-one] | 0.038 µM | 0.117 µM |
| COc1cccc(OC)c1C1CCCC(=O)N1Cc1cccc(-n2cccn2)c1 (centres unmarked) [Example 19, 1-(3-(1H-pyrazol-1-yl)benzyl)-6-(2,6-dimethoxyphenyl)piperidin-2-one] | 0.026 µM | 0.025 µM |
| COc1cccc(OC)c1C1CCCC(=O)N1Cc1ccc2nccnc2c1 (centres unmarked) [Example 20, 6-(2,6-dimethoxyphenyl)-1-(quinoxalin-6-ylmethyl)piperidin-2-one] | 0.864 µM | 0.952 µM |
| COc1cccc(OC)c1C1CCCC(=O)N1Cc1cnc(-c2ccccc2)s1 (centres unmarked) [Example 21, 6-(2,6-dimethoxyphenyl)-1-((2-phenylthiazol-5-yl)methyl)piperidin-2-one] | 0.366 µM | 0.951 µM |
| COc1cccc(OC)c1C1CCCC(=O)N1Cc1cc(-c2ccccc2)ccn1 (centres unmarked) [Example 22, 6-(2,6-dimethoxyphenyl)-1-((4-phenylpyridin-2-yl)methyl)piperidin-2-one] | 0.131 µM | 0.166 µM |
| COc1cccc(OC)c1C1CCCC(=O)N1Cc1cccc(-n2cncn2)c1 (centres unmarked) [Example 23, 1-(3-(1H-1,2,4-triazol-1-yl)benzyl)-6-(2,6-dimethoxyphenyl)piperidin-2-one] | 0.471 µM | 0.312 µM |
| COc1cccc(OC)c1C1CCCC(=O)N1Cc1cccc(N2CCCC2)c1 (centres unmarked) [Example 24, 6-(2,6-dimethoxyphenyl)-1-(3-(pyrrolidin-1-yl)benzyl)piperidin-2-one] | 0.031 µM | 0.022 µM |
| COc1cccc(OC)c1C1CCCC(=O)N1Cc1cc(-c2ccccc2)on1 (centres unmarked) [Example 25, 6-(2,6-dimethoxyphenyl)-1-((5-phenylisoxazol-3-yl)methyl)piperidin-2-one] | 0.902 µM | 0.688 µM |
| COc1cccc(OC)c1C1CCCC(=O)N1Cc1cnn(-c2ccccc2)c1 (centres unmarked) [Example 26, 6-(2,6-dimethoxyphenyl)-1-((1-phenyl-1H-pyrazol-4-yl)methyl)piperidin-2-one] | 0.115 µM | 0.167 µM |
| COc1cccc(OC)c1C1CCCC(=O)N1Cc1cccc(-n2ccnc2)c1 (centres unmarked) [Example 27, 1-(3-(1H-imidazol-1-yl)benzyl)-6-(2,6-dimethoxyphenyl)piperidin-2-one] | 0.181 µM | 0.136 µM |
| COc1cccc(OC)c1C1CCCC(=O)N1Cc1cccc(N2CCCCC2)n1 (centres unmarked) [Example 28, 6-(2,6-dimethoxyphenyl)-1-((6-(piperidin-1-yl)pyridin-2-yl)methyl)piperidin-2-one] | 0.011 µM | 0.021 µM |
| COc1cccc(OC)c1C1CCCC(=O)N1Cc1cccc(-c2ncccn2)c1 (centres unmarked) [Example 29, 6-(2,6-dimethoxyphenyl)-1-(3-(pyrimidin-2-yl)benzyl)piperidin-2-one] | 0.028 µM | 0.014 µM |
| COc1cccc(OC)c1C1CCCC(=O)N1Cc1ccc2oc3ccccc3c2c1 (centres unmarked) [Example 30, 1-(dibenzo[b,d]furan-2-ylmethyl)-6-(2,6-dimethoxyphenyl)piperidin-2-one] | 0.004 µM | 0.002 µM |
| COc1cccc(OC)c1C1CCCC(=O)N1Cc1nc2ccccc2s1 (centres unmarked) [Example 31, 1-(benzo[d]thiazol-2-ylmethyl)-6-(2,6-dimethoxyphenyl)piperidin-2-one] | 0.858 µM | 0.941 µM |
| COc1cccc(OC)c1C1CCCC(=O)N1Cc1ccc2c(c1)c1ccccc1n2C (centres unmarked) [Example 32, 6-(2,6-dimethoxyphenyl)-1-((9-methyl-9H-carbazol-3-yl)methyl)piperidin-2-one] | 0.132 µM | 0.05 µM |
| COc1cccc(OC)c1C1CCCC(=O)N1Cc1cccc(-c2noc(C)n2)c1 (centres unmarked) [Example 33, 6-(2,6-dimethoxyphenyl)-1-(3-(5-methyl-1,2,4-oxadiazol-3-yl)benzyl)piperidin-2-one] | 0.05 µM | 0.039 µM |
| COc1cccc(OC)c1C1CCCC(=O)N1Cc1ccnc(N2CCCC2)c1 (centres unmarked) [Example 34, 6-(2,6-dimethoxyphenyl)-1-((2-(pyrrolidin-1-yl)pyridin-4-yl)methyl)piperidin-2-one] | 2.06 µM | 1.05 µM |
| COc1cccc(OC)c1C1CCCC(=O)N1Cc1csc(-c2ccccc2)n1 (centres unmarked) [Example 35, 6-(2,6-dimethoxyphenyl)-1-((2-phenylthiazol-4-yl)methyl)piperidin-2-one] | 0.005 µM | 0.028 µM |

| SMILES | IC50 (human orexin-2 receptor) | IC50 (human orexin-1 receptor) |
| --- | --- | --- |
| COc1cccc(OC)c1C1CCCC(=O)N1Cc1ccnc(Br)c1 (centres unmarked) [Example 36, 1-((2-bromopyridin-4-yl)methyl)-6-(2,6-dimethoxyphenyl)piperidin-2-one] | 1.15 µM | 1.57 µM |
| COc1cccc(OC)c1C1CCCC(=O)N1Cc1cccc(-c2ccccn2)c1F (centres unmarked) [Example 37, 6-(2,6-dimethoxyphenyl)-1-(2-fluoro-3-(pyridin-2-yl)benzyl)piperidin-2-one] | 0.064 µM | 0.072 µM |
| COc1cccc(OC)c1C1CCCC(=O)N1Cc1cccc(-c2ccccn2)n1 (centres unmarked) [Example 38, 1-([2,2′-bipyridin]-6-ylmethyl)-6-(2,6-dimethoxyphenyl)piperidin-2-one] | 0.087 µM | 0.153 µM |
| COc1cccc(OC)c1C1CCCC(=O)N1Cc1cccc(-c2nccs2)n1 (centres unmarked) [Example 39, 6-(2,6-dimethoxyphenyl)-1-((6-(thiazol-2-yl)pyridin-2-yl)methyl)piperidin-2-one] | 0.147 µM | 0.179 µM |
| COc1cccc(OC)c1C1CCCC(=O)N1Cc1cc(-c2ccccn2)ccc1F (centres unmarked) [Example 40, 6-(2,6-dimethoxyphenyl)-1-(2-fluoro-5-(pyridin-2-yl)benzyl)piperidin-2-one] | 0.696 µM | 0.075 µM |
| COc1cccc(OC)c1C1CCCC(=O)N1Cc1ccc(F)c(-c2ccccn2)c1 (centres unmarked) [Example 41, 6-(2,6-dimethoxyphenyl)-1-(4-fluoro-3-(pyridin-2-yl)benzyl)piperidin-2-one] | 0.026 µM | 0.018 µM |
| COc1cccc(OC)c1C1CCCC(=O)N1Cc1cccc(-c2cncs2)c1 (centres unmarked) [Example 42, 6-(2,6-dimethoxyphenyl)-1-(3-(thiazol-5-yl)benzyl)piperidin-2-one] | 0.017 µM | 0.025 µM |
| COc1cccc(OC)c1C1CCCC(=O)N1Cc1cccc(-c2ncc(C)s2)c1 (centres unmarked) [Example 43, 6-(2,6-dimethoxyphenyl)-1-(3-(5-methylthiazol-2-yl)benzyl)piperidin-2-one] | 0.006 µM | 0.006 µM |
| COc1cccc(OC)c1C1CCCC(=O)N1Cc1cccc(-n2nccn2)c1 (centres unmarked) [Example 44, 1-(3-(2H-1,2,3-triazol-2-yl)benzyl)-6-(2,6-dimethoxyphenyl)piperidin-2-one] | 0.019 µM | 0.014 µM |
| COc1cccc(OC)c1C1CCCC(=O)N1Cc1cccc(-c2cscn2)c1 (centres unmarked) [Example 45, 6-(2,6-dimethoxyphenyl)-1-(3-(thiazol-4-yl)benzyl)piperidin-2-one] | 0.017 µM | 0.012 µM |
| COc1cccc(OC)c1C1CCCC(=O)N1Cc1cccc(-n2ccnn2)c1 (centres unmarked) [Example 46, 1-(3-(1H-1,2,3-triazol-1-yl)benzyl)-6-(2,6-dimethoxyphenyl)piperidin-2-one] | 0.239 µM | 0.44 µM |
| COc1cccc(OC)c1C1CCCC(=O)N1Cc1ccc2nc(C)sc2c1 (centres unmarked) [Example 47, 6-(2,6-dimethoxyphenyl)-1-((2-methylbenzo[d]thiazol-6-yl)methyl)piperidin-2-one] | 0.165 µM | 0.187 µM |
| COc1cccc(OC)c1C1CCCC(=O)N1Cc1cc(-c2ccccn2)ccc1Cl (centres unmarked) [Example 48, 1-(2-chloro-5-(pyridin-2-yl)benzyl)-6-(2,6-dimethoxyphenyl)piperidin-2-one] | 0.625 µM | 0.169 µM |
| COc1cccc(OC)c1C1CCCC(=O)N1Cc1cc(Cl)cc(-c2ccccn2)c1 (centres unmarked) [Example 49, 1-(3-chloro-5-(pyridin-2-yl)benzyl)-6-(2,6-dimethoxyphenyl)piperidin-2-one] | 0.011 µM | 0.028 µM |
| COc1cccc(OC)c1C1CCCC(=O)N1Cc1ccnc(-c2ccccn2)c1 (centres unmarked) [Example 50, 1-([2,2′-bipyridin]-4-ylmethyl)-6-(2,6-dimethoxyphenyl)piperidin-2-one] | 0.119 µM | 0.039 µM |
| COc1cccc(OC)c1C1CCCC(=O)N1Cc1ccnc(-n2cccn2)c1 (centres unmarked) [Example 52, 1-((2-(1H-pyrazol-1-yl)pyridin-4-yl)methyl)-6-(2,6-dimethoxyphenyl)piperidin-2-one] | 0.08 µM | 0.014 µM |
| COc1ccnc(OC)c1C1CCCC(=O)N1Cc1cccc(-c2nccs2)c1 (centres unmarked) [Example 53, 6-(2,4-dimethoxypyridin-3-yl)-1-(3-(thiazol-2-yl)benzyl)piperidin-2-one] | 0.022 µM | 0.033 µM |
| COc1ccnc(OC)c1C1CCCC(=O)N1Cc1cccc(-c2csc(C)n2)c1 (centres unmarked) [Example 54, 6-(2,4-dimethoxypyridin-3-yl)-1-(3-(2-methylthiazol-4-yl)benzyl)piperidin-2-one] | 0.013 µM | 0.015 µM |
| COc1ccnc(OC)c1C1CCCC(=O)N1Cc1cccc(-c2ccccn2)c1 (centres unmarked) [Example 55, 6-(2,4-dimethoxypyridin-3-yl)-1-(3-(pyridin-2-yl)benzyl)piperidin-2-one] | 0.095 µM | 0.096 µM |
| COc1ccnc(OC)c1C1CCCC(=O)N1Cc1csc(-c2ccccc2)n1 (centres unmarked) [Example 56, 6-(2,4-dimethoxypyridin-3-yl)-1-((2-phenylthiazol-4-yl)methyl)piperidin-2-one] | 0.006 µM | 0.141 µM |

Source: patent publication US9242970B2 (ACTELION PHARMACEUTICALS LTD., priority 2010, dated 2016)
